Activity calls are given as the source filed them. The rule behind the calls is not given here.
System: CCRIS mutagenicity, Ames/micronucleus/aberration tests
Assay: CCRIS mutagenicity studies
[1] = Test System: AMES SALMONELLA TYPHIMURIUM, Strain/Indicator: TA98, Metabolic Activation: NONE, Method: PREINCUBATION
[2] = Test System: AMES SALMONELLA TYPHIMURIUM, Strain/Indicator: TA98, Metabolic Activation: RAT, LIVER, S-9, AROCLOR 1254 (10%), Method: PREINCUBATION
[3] = Test System: AMES SALMONELLA TYPHIMURIUM, Strain/Indicator: TA100, Metabolic Activation: NONE, Method: PREINCUBATION
[4] = Test System: AMES SALMONELLA TYPHIMURIUM, Strain/Indicator: TA100, Metabolic Activation: RAT, LIVER, S-9, AROCLOR 1254 (10%), Method: PREINCUBATION
[5] = Test System: AMES SALMONELLA TYPHIMURIUM, Strain/Indicator: TA98, Metabolic Activation: NONE, Method: STANDARD PLATE
[6] = Test System: AMES SALMONELLA TYPHIMURIUM, Strain/Indicator: TA100, Metabolic Activation: NONE, Method: STANDARD PLATE

Measured: mutagenic call

Cc1ccc(N=C=O)cc1N=C=O
inactive: End Point: IN VITRO CHROMOSOMAL ABERRATIONS, Test System: CHL CELLS, Metabolic Activation: RAT, LIVER, S-9, SODIUM PHENOBARBITAL AND 5,6-BENZOFLAVONE inactive; negative; authors report equivocal results for ploidy changes at the highest dos | End Point: IN VITRO CHROMOSOMAL ABERRATIONS, Test System: CHO CELLS, Metabolic Activation: RAT, LIVER, S-9, AROCLOR 1254 inactive; negative; precipitation occurred at 500 and 750 ug/ml | Test System: AMES SALMONELLA TYPHIMURIUM, Strain/Indicator: TA97, Metabolic Activation: HAMSTER, LIVER, S-9, AROCLOR 1254 (10%), Method: PREINCUBATION inactive; negative | Test System: AMES SALMONELLA TYPHIMURIUM, Strain/Indicator: TA97, Metabolic Activation: NONE, Method: PREINCUBATION inactive; negative | Test System: AMES SALMONELLA TYPHIMURIUM, Strain/Indicator: TA97, Metabolic Activation: RAT, LIVER, S-9, AROCLOR 1254 (10%), Method: PREINCUBATION inactive; negative | [1] inactive; negative | Test System: AMES SALMONELLA TYPHIMURIUM, Strain/Indicator: TA98, Metabolic Activation: RAT LIVER S-9, PHENOBARBITAL AND BETA-NAPHTHOFLAVONE, Method: PREINCUBATION inactive; negative | [3] inactive; negative | Test System: AMES SALMONELLA TYPHIMURIUM, Strain/Indicator: TA1535, Metabolic Activation: HAMSTER, LIVER, S-9, AROCLOR 1254 (10%), Method: PREINCUBATION inactive; negative | Test System: AMES SALMONELLA TYPHIMURIUM, Strain/Indicator: TA1535, Metabolic Activation: NONE, Method: PREINCUBATION inactive; negative | Test System: AMES SALMONELLA TYPHIMURIUM, Strain/Indicator: TA1535, Metabolic Activation: RAT LIVER S-9, PHENOBARBITAL AND BETA-NAPHTHOFLAVONE, Method: PREINCUBATION inactive; negative | Test System: AMES SALMONELLA TYPHIMURIUM, Strain/Indicator: TA1535, Metabolic Activation: RAT, LIVER, S-9, AROCLOR 1254 (10%), Method: PREINCUBATION inactive; negative | Test System: AMES SALMONELLA TYPHIMURIUM, Strain/Indicator: TA1537, Metabolic Activation: NONE, Method: PREINCUBATION inactive; negative | Test System: AMES SALMONELLA TYPHIMURIUM, Strain/Indicator: TA1537, Metabolic Activation: RAT LIVER S-9, PHENOBARBITAL AND BETA-NAPHTHOFLAVONE, Method: PREINCUBATION inactive; negative | Test System: E.COLI, Strain/Indicator: WP2UVRA, Metabolic Activation: NONE, Method: PREINCUBATION inactive; negative | Test System: E.COLI, Strain/Indicator: WP2UVRA, Metabolic Activation: RAT LIVER S-9, PHENOBARBITAL AND BETA-NAPHTHOFLAVONE, Method: PREINCUBATION inactive; negative
active: Test System: AMES SALMONELLA TYPHIMURIUM, Strain/Indicator: TA98, Metabolic Activation: HAMSTER, LIVER, S-9, AROCLOR 1254 (10%), Method: PREINCUBATION active; positive | Test System: AMES SALMONELLA TYPHIMURIUM, Strain/Indicator: TA98, Metabolic Activation: RAT LIVER S-9, AROCLOR 1254 (10 OR 30%), Method: STANDARD PLATE active; positive | [2] active; positive | Test System: AMES SALMONELLA TYPHIMURIUM, Strain/Indicator: TA100, Metabolic Activation: HAMSTER, LIVER, S-9, AROCLOR 1254 (10%), Method: PREINCUBATION active; positive | [4] active; positive | Test System: AMES SALMONELLA TYPHIMURIUM, Strain/Indicator: TA1537, Metabolic Activation: RAT LIVER S-9, AROCLOR 1254 (10 OR 30%), Method: STANDARD PLATE active; positive | Test System: MOUSE LYMPHOMA, Strain/Indicator: L5178Y (TK+/TK-), Metabolic Activation: NONE, Method: SUSPENSION/PLATE active; positive | Test System: MOUSE LYMPHOMA, Strain/Indicator: L5178Y (TK+/TK-), Metabolic Activation: RAT, LIVER, S-9, AROCLOR 1254, Method: SUSPENSION/PLATE active; positive

O=C1c2ccccc2C(=O)c2cc(O)ccc21
active: [1] active; positive | [2] active; positive
inactive: [3] inactive; negative | [4] inactive; negative

c1ccc2c(c1)oc1ccccc12
inactive: End Point: IN VITRO CHROMOSOMAL ABERRATIONS, Test System: CHINESE HAMSTER OVARY CELLS, Metabolic Activation: NONE inactive; negative | End Point: IN VITRO CHROMOSOMAL ABERRATIONS, Test System: CHINESE HAMSTER OVARY CELLS, Metabolic Activation: RAT, LIVER, S-9, AROCLOR 1254 inactive; negative | Test System: AMES SALMONELLA TYPHIMURIUM, Strain/Indicator: TA98, Metabolic Activation: HAMSTER LIVER S-9, AROCLOR 1254, Method: STANDARD PLATE inactive; negative | [5] inactive; negative | Test System: AMES SALMONELLA TYPHIMURIUM, Strain/Indicator: TA98, Metabolic Activation: RAT LIVER S-9, AROCLOR 1254, Method: STANDARD PLATE inactive; negative | Test System: AMES SALMONELLA TYPHIMURIUM, Strain/Indicator: TA98, Metabolic Activation: RAT, LIVER, S-9, PHENOBARBITAL AND NAPHTHOFLAVONE, Method: STANDARD PLATE inactive; negative | Test System: AMES SALMONELLA TYPHIMURIUM, Strain/Indicator: TA98, Metabolic Activation: S-9, PHENOBARBITAL AND 5,6-BENZOFLAVONE, Method: STANDARD PLATE inactive; negative | Test System: AMES SALMONELLA TYPHIMURIUM, Strain/Indicator: TA100, Metabolic Activation: HAMSTER LIVER S-9, AROCLOR 1254, Method: STANDARD PLATE inactive; negative | [6] inactive; negative | Test System: AMES SALMONELLA TYPHIMURIUM, Strain/Indicator: TA100, Metabolic Activation: RAT LIVER S-9, AROCLOR 1254, Method: STANDARD PLATE inactive; negative | Test System: AMES SALMONELLA TYPHIMURIUM, Strain/Indicator: TA100, Metabolic Activation: RAT, LIVER, S-9, PHENOBARBITAL AND NAPHTHOFLAVONE, Method: STANDARD PLATE inactive; negative | Test System: AMES SALMONELLA TYPHIMURIUM, Strain/Indicator: TA100, Metabolic Activation: S-9, PHENOBARBITAL AND 5,6-BENZOFLAVONE, Method: STANDARD PLATE inactive; negative

C[C@]12CC[C@@H]3c4ccc(O)cc4CC[C@H]3C13CCC2(O)CC3
inactive: End Point: IN VITRO CHROMOSOMAL ABERRATIONS, Test System: HUMAN PERIPHERAL LYMPHOCYTES, Metabolic Activation: NONE inactive; negative at 20-24 hr; positive (high doses) at 48 hr | End Point: IN VITRO CHROMOSOMAL ABERRATIONS, Test System: HUMAN PERIPHERAL LYMPHOCYTES, Metabolic Activation: RAT, LIVER, S-9, AROCLOR 1254 inactive; negative

CCCN(C)N=O
active: Test System: CHINESE HAMSTER V-79, Strain/Indicator: V-79/8-AZAGUANINE, Metabolic Activation: RAT, LIVER, S-15, PHENOBARBITAL, Method: STANDARD PLATE active; positive | Test System: CHINESE HAMSTER V-79, Strain/Indicator: V-79/OUABAIN, Metabolic Activation: HAMSTER, HEPATOCYTES, Method: CELL-MEDIATED active; positive

CN(C(=O)CCCCl)c1snc2ccccc12
inactive: [5] inactive; negative | Test System: AMES SALMONELLA TYPHIMURIUM, Strain/Indicator: TA98, Metabolic Activation: S-9, Method: STANDARD PLATE inactive; negative | [6] inactive; negative | Test System: AMES SALMONELLA TYPHIMURIUM, Strain/Indicator: TA100, Metabolic Activation: S-9, Method: STANDARD PLATE inactive; negative | Test System: AMES SALMONELLA TYPHIMURIUM, Strain/Indicator: TA1535, Metabolic Activation: NONE, Method: STANDARD PLATE inactive; negative | Test System: AMES SALMONELLA TYPHIMURIUM, Strain/Indicator: TA1535, Metabolic Activation: S-9, Method: STANDARD PLATE inactive; negative | Test System: AMES SALMONELLA TYPHIMURIUM, Strain/Indicator: TA1537, Metabolic Activation: NONE, Method: STANDARD PLATE inactive; negative | Test System: AMES SALMONELLA TYPHIMURIUM, Strain/Indicator: TA1537, Metabolic Activation: S-9, Method: STANDARD PLATE inactive; negative

CNC(=O)ONC(C)=O
active: [5] active; positive | Test System: AMES SALMONELLA TYPHIMURIUM, Strain/Indicator: TA98, Metabolic Activation: RAT, LIVER, S-9, Method: STANDARD PLATE active; positive | [6] active; positive

Source: PubChem BioAssay AID1259407 (Chemical Carcinogenesis Research Information System (CCRIS), 2018)
